Reference: ChEMBL document CHEMBL3421530, “Azepinone-Containing Tetrapeptide Analogues of Melanotropin Lead to Selective hMC4R Agonists and hMC5R Antagonist” (ACS Med Chem Lett, 2015)

Molecular target: T1, Melanocortin receptor 5 (Homo sapiens, UniProt P33032)
T1 sequence (P33032 whole entry): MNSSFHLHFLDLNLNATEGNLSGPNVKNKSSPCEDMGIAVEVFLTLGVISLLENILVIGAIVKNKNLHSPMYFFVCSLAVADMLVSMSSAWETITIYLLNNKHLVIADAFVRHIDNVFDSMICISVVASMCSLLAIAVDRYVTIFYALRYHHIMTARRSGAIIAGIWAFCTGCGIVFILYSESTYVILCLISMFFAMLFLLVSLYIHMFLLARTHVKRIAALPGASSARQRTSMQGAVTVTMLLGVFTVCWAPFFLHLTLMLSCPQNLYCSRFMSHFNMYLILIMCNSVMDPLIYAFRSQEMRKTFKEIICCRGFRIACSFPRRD
Experiment: Displacement of [125I]-NDP-alpha-MSH from human MC5 receptor expressed in HEK293 cells by gamma counting analysis
Format: cell-based
Conditions: not given; call rule not given here
`CC(=O)N[C@H]1Cc2c([nH]c3ccccc23)CN([C@H](Cc2ccc(F)cc2)C(=O)N[C@@H](CCCNC(=N)N)C(=O)N[C@@H](Cc2c[nH]c3ccccc23)C(N)=O)C1=O` showed an IC50 of 0.167 µM.

Molecular target: T1, Melanocortin receptor 5
Experiment: Antagonist activity at human MC5 receptor expressed in HEK293 cells assessed as cAMP accumulation at 10 uM by luminescence counter relative to MT-II
Format: functional, cell-based
Parameters: scale not given: the % may be the effect or the level left
Conditions: not given
`CC(=O)N[C@H]1Cc2c([nH]c3ccccc23)CN([C@H](Cc2ccc(F)cc2)C(=O)N[C@@H](CCCNC(=N)N)C(=O)N[C@@H](Cc2c[nH]c3ccccc23)C(N)=O)C1=O` showed an Activity of 50%.

Molecular target: T2, Melanocortin receptor 3 (Homo sapiens, UniProt P41968)
T2 sequence (P41968 whole entry): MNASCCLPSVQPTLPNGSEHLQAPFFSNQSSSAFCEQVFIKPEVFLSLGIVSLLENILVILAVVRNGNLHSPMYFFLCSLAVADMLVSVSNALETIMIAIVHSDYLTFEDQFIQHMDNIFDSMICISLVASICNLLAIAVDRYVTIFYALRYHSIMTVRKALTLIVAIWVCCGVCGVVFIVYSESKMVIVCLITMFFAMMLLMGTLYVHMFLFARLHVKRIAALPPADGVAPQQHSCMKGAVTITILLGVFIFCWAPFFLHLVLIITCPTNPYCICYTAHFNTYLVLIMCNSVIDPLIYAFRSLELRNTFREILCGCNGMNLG
Experiment: Displacement of [125I]-NDP-alpha-MSH from human MC3 receptor expressed in HEK293 cells at 10 uM by gamma counting analysis
Format: cell-based
Conditions: not given
In the case of `CC(=O)N[C@H]1Cc2c([nH]c3ccccc23)CN([C@H](Cc2ccc(F)cc2)C(=O)N[C@@H](CCCNC(=N)N)C(=O)N[C@@H](Cc2c[nH]c3ccccc23)C(N)=O)C1=O`, the %max is reported as 50%.

Molecular target: T3, Melanocortin receptor 4 (Homo sapiens, UniProt P32245)
T3 sequence (P32245 whole entry): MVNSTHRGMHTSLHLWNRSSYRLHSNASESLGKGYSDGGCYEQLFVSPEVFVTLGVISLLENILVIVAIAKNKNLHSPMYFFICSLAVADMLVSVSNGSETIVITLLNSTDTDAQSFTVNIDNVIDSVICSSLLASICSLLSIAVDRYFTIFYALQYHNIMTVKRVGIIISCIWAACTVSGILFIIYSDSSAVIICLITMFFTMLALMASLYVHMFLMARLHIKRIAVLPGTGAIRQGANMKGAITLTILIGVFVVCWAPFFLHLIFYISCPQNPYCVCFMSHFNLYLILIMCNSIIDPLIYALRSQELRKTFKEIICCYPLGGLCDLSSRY
Experiment: Agonist activity at human MC4 receptor expressed in HEK293 cells assessed as cAMP accumulation by luminescence counter
Format: functional, cell-based
Conditions: not given
Compound `CC(=O)N[C@H]1Cc2c([nH]c3ccccc23)CN([C@H](Cc2ccc(F)cc2)C(=O)N[C@@H](CCCNC(=N)N)C(=O)N[C@@H](Cc2c[nH]c3ccccc23)C(N)=O)C1=O` has an EC50 of 0.013 µM.

Molecular target: T3, Melanocortin receptor 4
Experiment: Displacement of [125I]-NDP-alpha-MSH from human MC4 receptor expressed in HEK293 cells at 10 uM by gamma counting analysis
Format: cell-based
Conditions: not given
Work on `CC(=O)N[C@H]1Cc2c([nH]c3ccccc23)CN([C@H](Cc2ccc(F)cc2)C(=O)N[C@@H](CCCNC(=N)N)C(=O)N[C@@H](Cc2c[nH]c3ccccc23)C(N)=O)C1=O` yielded a %max of 80%.

Molecular target: T1, Melanocortin receptor 5
Experiment: Antagonist activity at human MC5 receptor expressed in HEK293 cells assessed as cAMP accumulation by luminescence counter
Format: functional, cell-based
Conditions: read-out: EC50
In the case of `CC(=O)N[C@H]1Cc2c([nH]c3ccccc23)CN([C@H](Cc2ccc(F)cc2)C(=O)N[C@@H](CCCNC(=N)N)C(=O)N[C@@H](Cc2c[nH]c3ccccc23)C(N)=O)C1=O`, the EC50 is reported as 4.11 µM.

Test system: not listed separately
Experiment: Retention time of the compound
Format: physicochemical
Conditions: not given
`CC(=O)N[C@H]1Cc2c([nH]c3ccccc23)CN([C@H](Cc2ccc(F)cc2)C(=O)N[C@@H](CCCNC(=N)N)C(=O)N[C@@H](Cc2c[nH]c3ccccc23)C(N)=O)C1=O` showed a Retention_time of 13.94 min.

Molecular target: T3, Melanocortin receptor 4
Experiment: Agonist activity at human MC4 receptor expressed in HEK293 cells assessed as cAMP accumulation at 10 uM by luminescence counter relative to MT-II
Format: functional, cell-based
Conditions: not given
With `CC(=O)N[C@H]1Cc2c([nH]c3ccccc23)CN([C@H](Cc2ccc(F)cc2)C(=O)N[C@@H](CCCNC(=N)N)C(=O)N[C@@H](Cc2c[nH]c3ccccc23)C(N)=O)C1=O` the Activity was 100%.

Molecular target: T4, Melanocyte-stimulating hormone receptor (Homo sapiens, UniProt Q01726)
Experiment: Displacement of [125I]-NDP-alpha-MSH from human MC1 receptor expressed in HEK293 cells at 10 uM by gamma counting analysis
Format: cell-based
Conditions: not given
Target sequence in this assay (Q01726 whole entry, looked up): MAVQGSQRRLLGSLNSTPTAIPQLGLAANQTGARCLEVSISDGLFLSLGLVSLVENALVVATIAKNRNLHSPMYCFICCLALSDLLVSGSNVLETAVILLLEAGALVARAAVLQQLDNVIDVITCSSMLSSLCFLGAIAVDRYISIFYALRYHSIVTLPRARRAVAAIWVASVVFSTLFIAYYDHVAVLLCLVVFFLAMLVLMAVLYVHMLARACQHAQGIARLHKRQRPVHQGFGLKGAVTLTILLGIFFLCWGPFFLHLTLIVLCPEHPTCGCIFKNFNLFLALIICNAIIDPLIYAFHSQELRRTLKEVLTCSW
Work on `CC(=O)N[C@H]1Cc2c([nH]c3ccccc23)CN([C@H](Cc2ccc(F)cc2)C(=O)N[C@@H](CCCNC(=N)N)C(=O)N[C@@H](Cc2c[nH]c3ccccc23)C(N)=O)C1=O` yielded a %max of 40%.

Molecular target: T2, Melanocortin receptor 3
Experiment: Displacement of [125I]-NDP-alpha-MSH from human MC3 receptor expressed in HEK293 cells by gamma counting analysis
Format: cell-based
Conditions: read-out: IC50
Compound `CC(=O)N[C@H]1Cc2c([nH]c3ccccc23)CN([C@H](Cc2ccc(F)cc2)C(=O)N[C@@H](CCCNC(=N)N)C(=O)N[C@@H](Cc2c[nH]c3ccccc23)C(N)=O)C1=O` has an IC50 of 5 µM.

Molecular target: T4, Melanocyte-stimulating hormone receptor
Experiment: Activity at human MC1 receptor expressed in HEK293 cells assessed as cAMP accumulation by luminescence counter
Format: functional, cell-based
Conditions: read-out: EC50
Target sequence in this assay (Q01726 whole entry): as the sequence (Q01726 whole entry, looked up) above
Compound `CC(=O)N[C@H]1Cc2c([nH]c3ccccc23)CN([C@H](Cc2ccc(F)cc2)C(=O)N[C@@H](CCCNC(=N)N)C(=O)N[C@@H](Cc2c[nH]c3ccccc23)C(N)=O)C1=O` has an EC50 of 0.226 µM.

Molecular target: T1, Melanocortin receptor 5
Experiment: Displacement of [125I]-NDP-alpha-MSH from human MC5 receptor expressed in HEK293 cells at 10 uM by gamma counting analysis
Format: cell-based
Conditions: not given
Work on `CC(=O)N[C@H]1Cc2c([nH]c3ccccc23)CN([C@H](Cc2ccc(F)cc2)C(=O)N[C@@H](CCCNC(=N)N)C(=O)N[C@@H](Cc2c[nH]c3ccccc23)C(N)=O)C1=O` yielded a %max of 80%.

Molecular target: T2, Melanocortin receptor 3
Experiment: Activity at human MC3 receptor expressed in HEK293 cells assessed as cAMP accumulation at 10 uM by luminescence counter relative to MT-II
Format: functional, cell-based
Conditions: not given
For `CC(=O)N[C@H]1Cc2c([nH]c3ccccc23)CN([C@H](Cc2ccc(F)cc2)C(=O)N[C@@H](CCCNC(=N)N)C(=O)N[C@@H](Cc2c[nH]c3ccccc23)C(N)=O)C1=O`, the Activity was 0%.

Molecular target: T3, Melanocortin receptor 4
Experiment: Displacement of [125I]-NDP-alpha-MSH from human MC4 receptor expressed in HEK293 cells by gamma counting analysis
Format: cell-based
Conditions: not given
For `CC(=O)N[C@H]1Cc2c([nH]c3ccccc23)CN([C@H](Cc2ccc(F)cc2)C(=O)N[C@@H](CCCNC(=N)N)C(=O)N[C@@H](Cc2c[nH]c3ccccc23)C(N)=O)C1=O`, the IC50 was 0.0065 µM.

Molecular target: T4, Melanocyte-stimulating hormone receptor
Experiment: Activity at human MC1 receptor expressed in HEK293 cells assessed as cAMP accumulation at 10 uM by luminescence counter relative to MT-II
Format: functional, cell-based
Conditions: not given
Target sequence in this assay (Q01726 whole entry, looked up): as above
`CC(=O)N[C@H]1Cc2c([nH]c3ccccc23)CN([C@H](Cc2ccc(F)cc2)C(=O)N[C@@H](CCCNC(=N)N)C(=O)N[C@@H](Cc2c[nH]c3ccccc23)C(N)=O)C1=O` showed an Activity of 50%.

Molecular target: T2, Melanocortin receptor 3
Experiment: Activity at human MC3 receptor expressed in HEK293 cells assessed as cAMP accumulation by luminescence counter
Format: functional, cell-based
Conditions: hek293
For `CC(=O)N[C@H]1Cc2c([nH]c3ccccc23)CN([C@H](Cc2ccc(F)cc2)C(=O)N[C@@H](CCCNC(=N)N)C(=O)N[C@@H](Cc2c[nH]c3ccccc23)C(N)=O)C1=O`, the EC50 was “Not Active”.

Molecular target: T4, Melanocyte-stimulating hormone receptor
Experiment: Displacement of [125I]-NDP-alpha-MSH from human MC1 receptor expressed in HEK293 cells by gamma counting analysis
Format: cell-based
Conditions: not given
Target sequence in this assay (Q01726 whole entry): as the sequence (Q01726 whole entry, looked up) above
With `CC(=O)N[C@H]1Cc2c([nH]c3ccccc23)CN([C@H](Cc2ccc(F)cc2)C(=O)N[C@@H](CCCNC(=N)N)C(=O)N[C@@H](Cc2c[nH]c3ccccc23)C(N)=O)C1=O` the IC50 was 0.258 µM.
